Measurements reported in patent US10433548B2, “Biocidal compositions comprising iron chelators” (Arch Chemicals, Inc., priority 2012, dated 2019).
≈ marks a conversion by molar mass, not a printed value. Read-outs that look alike come from different tables or passages of the source.

Experiments:
Experiment in all cases: Minimum Inhibitory Concentration (MIC) test, 96-well microtiter plate
Format in all cases: cell-based
P. faveolarum = system: P. faveolarum; design: unit not given here
Procedure: (§1) Activities of antimicrobial compositions of the present invention were tested against a range of typical skin microorganisms in a Minimum Inhibitory Concentration (MIC) test. MICs for the organisms were determined in a standard 96-well microtiter plate assay in Brain Heart Infusion Broth (BHI) for P. acnes; Tryptic Soy Broth (TSB) for the remaining bacteria; Ushijima Broth for M. furfur; Sabouraud Dextrose Broth (SDB) for other fungi. Samples were tested in duplicate on separate plates. For bacteria and fungi plates, samples were serially diluted into double strength media on the microtiter plates. The bacterial or fungal inocula, suspended in sterile deionized water, were then added to the wells in 1:1 ratio to the medium. The final concentration of bacteria in the wells was 5×10^5 CFUs/mL, the final concentration of fungi was 5×10^4 cells or spores/mL. Plates were incubated: anaerobically at 35° C. for 7 days for P. acnes; aerobically at 35° C. for 2 days for the remaining bacteria and aerobically at 35° C. for 7 days for M. furfur; aerobically at 28° C. for 7 days for T. mentagrophytes.

B. subtilis = system: B. subtilis; design: unit not given here
Procedure: as §1

A. pullulans = system: A. pullulans; design: unit not given here
Procedure: as §1

P. aeruginosa = system: P. aeruginosa; design: unit not given here
Procedure: as §1

A. brasiliensis = system: A. brasiliensis; design: unit not given here
Procedure: as §1

R. subcapitata = system: R. subcapitata; design: unit not given here
C. pyrenoidosa = system: C. pyrenoidosa; design: unit not given here
P. acnes = details: for MIC: Cutibacterium acnes
Procedure: as §1

T. mentagrophytes = system: T. mentagrophytes; design: unit not given here
Procedure: as §1

E. hirae = system: E. hirae; design: unit not given here
Procedure: as §1

S. aureus = system: S. aureus; design: unit not given here
Procedure: as §1

S. epidermidis = system: S. epidermidis; design: unit not given here
Procedure: as §1

C. albicans = system: C. albicans; design: unit not given here
Procedure: as §1

M. furfur = system: M. furfur; design: unit not given here
Procedure: as §1

E. coli = details: Active ZPT alone or plus chelator or chelator + Zn(II); Molar Ratio HBED 10×, 8-HQ 5×, 8-HQ + Zn(II) 1×, 2-HPNO 10×
Procedure: as §1

[1] = concentration of BIT, BIT alone or with potentiator, Molar Eq (Pot:BIT) 10:1
[2] = concentration of BBIT, BBIT alone or with potentiator, Molar Eq (Pot:BBIT) 10:1
[3] = concentration of IPBC, IPBC alone or with potentiator, Molar Eq (Pot:IPBC) 10:1
[4] = concentration of Propiconazole, alone or with potentiator, Molar Eq (Pot:PROP) 10:1
[5] = concentration of ZPT, ZPT alone or with potentiator, Molar Eq (Pot:ZPT) 10:1, 8-HQ-Zn 1:1
[6] = Active ZPT alone or plus chelator or chelator + Zn(II), Molar Ratio HBED 10×, 8-HQ 5×, 8-HQ + Zn(II) 1×, 2-HPNO 10×

Compound	MIC P. faveolarum (P. faveolarum; [1])	MIC B. subtilis (B. subtilis; [1])	MIC A. pullulans (A. pullulans; [1])	MIC P. aeruginosa (P. aeruginosa; [1])	MIC A. brasiliensis (A. brasiliensis; [1])	MIC R. subcapitata (R. subcapitata; [1])	MIC C. pyrenoidsa (C. pyrenoidosa; [1])	MIC P. faveolarum (P. faveolarum; [2])	MIC P. faveolarum (P. faveolarum; [4])	MIC P. faveolarum (P. faveolarum; [5])	MIC B. subtilis (B. subtilis; [2])	MIC B. subtilis (B. subtilis; [5])	MIC T. mentagrophytes (T. mentagrophytes; [5])	MIC E. hirae (E. hirae; [4])	MIC A. pullulans (A. pullulans; [2])	MIC S. aureus (S. aureus; [4])	MIC P. aeruginosa (P. aeruginosa; [2])	MIC P. aeruginosa (P. aeruginosa; [4])	MIC P. aeruginosa (P. aeruginosa; [5])	MIC S. epidermidis (S. epidermidis; [5])	further results
O=c1[nH]sc2ccccc12 [BIT, benzisothiazolinone]	4.06-16	1.02-4	4.06-8	32.50	16-32.5	8.13	4.06-8	–	–	–	–	–	–	–	–	–	–	–	–	–	–
CC(=O)N(O)CCCCCNC(=O)CCC(=O)N(O)CCCCCNC(=O)CCC(=O)N(O)CCCCCN [Desferrioxamine, desferrioxamine]	–	–	–	–	–	–	–	–	–	–	–	–	–	–	–	–	–	–	–	–	MIC (P. acnes; read-out: MIC values against P. acnes, Benzoyl Peroxide): 25 µg/mL (≈ 44.6 µM); MIC (P. acnes; read-out: MIC values against P. acnes, Salicylic Acid): 25 µg/mL (≈ 44.6 µM)
O=C(O)c1ccccc1O [Salicylic Acid, salicylic acid]	–	–	–	–	–	–	–	–	–	–	–	–	–	–	–	–	–	–	–	–	MIC (P. acnes; Salicylic Acid without chelator or with chelator, Molar Eq. HBED 10×, 8-HQ 5×, DTPA 10×, Desferrioxamine 1×, read-out: MIC values against P. acnes, Salicylic Acid): 100 µg/mL (≈ 724 µM)
O=c1cccccc1[O-].O=c1cccccc1[O-].[Zn+2] [Tropolone-Zn, zinc(tropolone)2]	0.19	0.13	0.24	8.13	1.02	1.02	0.76	0.23	0.32	0.05	0.31	0.24	0.18	0.32	0.31	0.64	20.00	41.25	15.63	0.18	MIC P. faveolarum (P. faveolarum; [3]): 0.38; MIC B. subtilis (B. subtilis; [3]): 0.51; MIC B. subtilis (B. subtilis; [4]): 0.64; MIC E. hirae (E. hirae; [3]): 0.25; MIC S. aureus (S. aureus; [3]): 0.51; MIC P. aeruginosa (P. aeruginosa; [3]): 32.5; MIC C. albicans (C. albicans; [3]): 1.02; MIC C. albicans (C. albicans; [4]): 0.97; MIC C. albicans (C. albicans; [5]): 0.73; MIC M. furfur (M. furfur; [5]): 0.73; MIC A. brasiliensis (A. brasiliensis; [2]): 0.94; MIC A. brasiliensis (A. brasiliensis; [5]): 1.95; MIC R. subcapitata (R. subcapitata; [2]): 0.94; MIC R. subcapitata (R. subcapitata; [3]): 0.51; MIC R. subcapitata (R. subcapitata; [4]): 1.29; MIC R. subcapitata (R. subcapitata; [5]): 0.49; MIC C. pyrenoidsa (C. pyrenoidosa; [2]): 1.25; MIC C. pyrenoidsa (C. pyrenoidosa; [3]): 0.51; MIC C. pyrenoidsa (C. pyrenoidosa; [4]): 2.58; MIC C. pyrenoidsa (C. pyrenoidosa; [5]): 0.98
CCCC1COC(Cn2cncn2)(c2ccc(Cl)cc2Cl)O1 (stereo not shown) [Propiconazole, propiconazole]	–	–	–	–	–	–	–	–	20.63-41.25	–	–	–	–	165.00	–	82.5-165.00	–	165.00	–	–	MIC C. albicans (C. albicans; [4]): 41.25-100.00; MIC R. subcapitata (R. subcapitata; [4]): 20.63-41.25; MIC C. pyrenoidsa (C. pyrenoidosa; [4]): 20.63-82.5
zinc dihydroxyacetate [DHA-Zn]	0.25	1.52	2.03	32.50	6.09	2.03	2.03	–	1.93	0.05	–	0.98	0.49	20.63	–	41.25	–	165.00	31.25	3.91	MIC B. subtilis (B. subtilis; [4]): 30.94; MIC C. albicans (C. albicans; [4]): 0.64; MIC C. albicans (C. albicans; [5]): 3.91; MIC M. furfur (M. furfur; [5]): 1.95; MIC A. brasiliensis (A. brasiliensis; [5]): 7.81; MIC R. subcapitata (R. subcapitata; [4]): 1.29; MIC R. subcapitata (R. subcapitata; [5]): 0.98; MIC C. pyrenoidsa (C. pyrenoidosa; [4]): 10.31; MIC C. pyrenoidsa (C. pyrenoidosa; [5]): 0.98
glucoheptanoic acid zinc salt [Gluco-heptanoate-Zn]	–	–	–	–	–	–	–	0.16	1.93	–	1.25	–	–	20.63	5.00	41.25	80.00	165.00	–	–	MIC B. subtilis (B. subtilis; [4]): 20.63; MIC C. albicans (C. albicans; [4]): 82.50; MIC A. brasiliensis (A. brasiliensis; [2]): 2.50; MIC R. subcapitata (R. subcapitata; [2]): 1.88; MIC R. subcapitata (R. subcapitata; [4]): 0.97; MIC C. pyrenoidsa (C. pyrenoidosa; [2]): 1.25; MIC C. pyrenoidsa (C. pyrenoidosa; [4]): 15.47
O=C(O)CN(CCN(CC(=O)O)CC(=O)O)CCN(CC(=O)O)CC(=O)O [DTPA, diethylenetriaminepentaacetic acid]	<0.06	2.03	2.03	8.13	16.25	0.51	0.51	0.16	–	–	2.50	–	–	–	0.63	–	20.00	–	–	–	MIC A. brasiliensis (A. brasiliensis; [2]): 1.25; MIC R. subcapitata (R. subcapitata; [2]): 0.94; MIC values against P. acnes, Benzoyl Peroxide (P. acnes; Benzoyl Peroxide without chelator or with chelator, Molar Eq. HBED 10×, 8-HQ 5×, DTPA 10×, Desferrioxamine 1×): 6.25 ppm; MIC values against P. acnes, Salicylic Acid (P. acnes; Salicylic Acid without chelator or with chelator, Molar Eq. HBED 10×, 8-HQ 5×, DTPA 10×, Desferrioxamine 1×): 3.13 ppm; MIC C. pyrenoidsa (C. pyrenoidosa; [2]): 1.25
O=C(CC(=O)C(F)(F)F)c1cccs1.[Zn] [Then-Zn, thenoyl trifluoro acetone zinc salt]	0.13	1.52	4.06	32.50	32.50	1.02	2.03	–	–	–	–	–	–	–	–	–	–	–	–	–	MIC P. faveolarum (P. faveolarum; [3]): 0.51; MIC B. subtilis (B. subtilis; [3]): 4.06; MIC E. hirae (E. hirae; [3]): 8.13; MIC S. aureus (S. aureus; [3]): 13.25; MIC P. aeruginosa (P. aeruginosa; [3]): 65.0; MIC C. albicans (C. albicans; [3]): 2.03; MIC R. subcapitata (R. subcapitata; [3]): 1.02; MIC C. pyrenoidsa (C. pyrenoidosa; [3]): 0.38
CCCCn1sc2ccccc2c1=O [BBIT, butylbenzisothiazolinone]	–	–	–	–	–	–	–	1.25-5	–	–	1.88-2.5	–	–	–	2.5-5	–	80.00	–	–	–	MIC A. brasiliensis (A. brasiliensis; [2]): 1.25-5; MIC R. subcapitata (R. subcapitata; [2]): 1.25-15; MIC C. pyrenoidsa (C. pyrenoidosa; [2]): 1.25-2.5
Oc1cccc2cccnc12.[Zn] [8-HQ-Zn, 8-hydroxyquinoline zinc salt]	–	–	–	–	–	–	–	–	–	0.24	–	0.98	3.91	–	–	–	–	–	31.25	1.95	MIC T. mentagrophytes (T. mentagrophytes; [6]): 3.91; MIC P. aeruginosa (P. aeruginosa; [6]): 31.5; MIC S. epidermidis (S. epidermidis; [6]): 1.95; MIC C. albicans (C. albicans; [5]): 7.81; MIC M. furfur (M. furfur; [6]): 1.95; MIC M. furfur (M. furfur; [5]): 1.95; MIC A. brasiliensis (A. brasiliensis; [5]): 15.63; MIC R. subcapitata (R. subcapitata; [5]): 1.95; MIC E. Coli (E. coli): 7.81; MIC C. pyrenoidsa (C. pyrenoidosa; [5]): 0.73
O=C(OOC(=O)c1ccccc1)c1ccccc1 [Benzoyl Peroxide, benzoyl peroxide]	–	–	–	–	–	–	–	–	–	–	–	–	–	–	–	–	–	–	–	–	MIC (P. acnes; Benzoyl Peroxide without chelator or with chelator, Molar Eq. HBED 10×, 8-HQ 5×, DTPA 10×, Desferrioxamine 1×, read-out: MIC values against P. acnes, Benzoyl Peroxide): 200 µg/mL (≈ 826 µM)
O=C(O)CN(CCN(CC(=O)O)Cc1ccccc1O)Cc1ccccc1O.[Zn] [HBED-Zn]	–	–	–	–	–	–	–	–	–	0.24	–	1.95	1.46	–	–	–	–	–	15.63	3.91	MIC T. mentagrophytes (T. mentagrophytes; [6]): 1.46; MIC P. aeruginosa (P. aeruginosa; [6]): 15.63; MIC S. epidermidis (S. epidermidis; [6]): 3.91; MIC C. albicans (C. albicans; [5]): 3.91; MIC M. furfur (M. furfur; [6]): 0.98; MIC M. furfur (M. furfur; [5]): 0.98; MIC A. brasiliensis (A. brasiliensis; [5]): 7.81; MIC R. subcapitata (R. subcapitata; [5]): 0.49; MIC E. Coli (E. coli): 3.91; MIC C. pyrenoidsa (C. pyrenoidosa; [5]): 0.98
